In ChEMBL document CHEMBL5465560, “Selectivity Literature for EUbOPEN Chemogenomic Library” (2024):

Tests used:
[1] = molecular target: T1, Tyrosine-protein kinase Mer (Homo sapiens) (UniProt Q12866); assay: Selectivity interaction (KinomeScan (DiscoverX)) EUB0000229b MERTK; conditions: at 10 µM
T1 sequence (whole entry): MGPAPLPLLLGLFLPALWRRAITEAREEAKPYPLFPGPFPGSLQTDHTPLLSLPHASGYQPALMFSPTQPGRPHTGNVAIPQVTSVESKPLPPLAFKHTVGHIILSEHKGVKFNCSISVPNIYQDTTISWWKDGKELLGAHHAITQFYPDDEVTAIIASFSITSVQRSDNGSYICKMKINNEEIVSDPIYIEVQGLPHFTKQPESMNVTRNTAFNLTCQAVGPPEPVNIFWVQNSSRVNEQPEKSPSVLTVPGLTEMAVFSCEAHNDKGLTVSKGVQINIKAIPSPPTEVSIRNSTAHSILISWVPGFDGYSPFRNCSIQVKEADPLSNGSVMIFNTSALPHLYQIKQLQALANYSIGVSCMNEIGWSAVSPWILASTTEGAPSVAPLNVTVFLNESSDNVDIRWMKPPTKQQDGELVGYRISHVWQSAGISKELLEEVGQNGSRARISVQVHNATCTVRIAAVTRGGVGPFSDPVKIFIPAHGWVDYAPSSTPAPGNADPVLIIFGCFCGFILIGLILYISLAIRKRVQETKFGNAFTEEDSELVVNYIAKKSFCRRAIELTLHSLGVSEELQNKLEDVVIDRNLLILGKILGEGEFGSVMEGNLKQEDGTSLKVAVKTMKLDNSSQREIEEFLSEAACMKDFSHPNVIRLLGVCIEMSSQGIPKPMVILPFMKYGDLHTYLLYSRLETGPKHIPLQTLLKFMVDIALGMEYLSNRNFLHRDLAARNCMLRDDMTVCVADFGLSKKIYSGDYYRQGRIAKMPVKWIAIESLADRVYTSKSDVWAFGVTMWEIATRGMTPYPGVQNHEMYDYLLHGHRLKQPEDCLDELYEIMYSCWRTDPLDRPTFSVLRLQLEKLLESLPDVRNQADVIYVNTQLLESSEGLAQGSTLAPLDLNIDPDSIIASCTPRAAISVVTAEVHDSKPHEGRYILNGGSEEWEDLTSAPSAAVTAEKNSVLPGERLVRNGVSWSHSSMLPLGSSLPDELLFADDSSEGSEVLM

[2] = molecular target: Interleukin-1 receptor-associated kinase 1 (Homo sapiens) (UniProt P51617); assay: Selectivity interaction (KinomeScan (DiscoverX)) EUB0000618a IRAK1; conditions: at 10 µM
Interleukin-1 receptor-associated kinase 1 (Homo sapiens), sequence (P51617 whole entry, looked up): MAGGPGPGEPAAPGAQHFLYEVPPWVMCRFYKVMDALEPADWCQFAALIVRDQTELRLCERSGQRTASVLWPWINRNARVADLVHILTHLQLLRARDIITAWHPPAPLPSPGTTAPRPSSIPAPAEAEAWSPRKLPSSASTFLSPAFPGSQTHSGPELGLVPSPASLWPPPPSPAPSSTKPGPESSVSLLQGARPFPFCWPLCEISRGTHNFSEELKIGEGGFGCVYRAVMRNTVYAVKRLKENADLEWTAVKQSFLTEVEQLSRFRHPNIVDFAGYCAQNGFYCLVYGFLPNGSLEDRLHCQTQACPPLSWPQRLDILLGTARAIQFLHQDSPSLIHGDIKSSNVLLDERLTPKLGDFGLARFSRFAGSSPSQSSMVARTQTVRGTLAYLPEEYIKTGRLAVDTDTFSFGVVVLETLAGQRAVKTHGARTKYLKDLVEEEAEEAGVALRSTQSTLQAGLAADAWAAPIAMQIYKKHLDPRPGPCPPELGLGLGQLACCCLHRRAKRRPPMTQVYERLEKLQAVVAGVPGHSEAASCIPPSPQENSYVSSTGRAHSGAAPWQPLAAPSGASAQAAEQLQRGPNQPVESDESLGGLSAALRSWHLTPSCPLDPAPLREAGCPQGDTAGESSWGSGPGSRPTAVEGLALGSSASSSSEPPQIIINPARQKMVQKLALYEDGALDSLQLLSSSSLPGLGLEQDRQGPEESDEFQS

[3] = molecular target: Protein kinase C beta type (Homo sapiens, UniProt P05771); assay: Selectivity interaction (Upstate Kinase Profiler service (Millipore)) EUB0000056c PRKCB; conditions: at 1 µM
Protein kinase C beta type, sequence (P05771 2-671 limits assumed): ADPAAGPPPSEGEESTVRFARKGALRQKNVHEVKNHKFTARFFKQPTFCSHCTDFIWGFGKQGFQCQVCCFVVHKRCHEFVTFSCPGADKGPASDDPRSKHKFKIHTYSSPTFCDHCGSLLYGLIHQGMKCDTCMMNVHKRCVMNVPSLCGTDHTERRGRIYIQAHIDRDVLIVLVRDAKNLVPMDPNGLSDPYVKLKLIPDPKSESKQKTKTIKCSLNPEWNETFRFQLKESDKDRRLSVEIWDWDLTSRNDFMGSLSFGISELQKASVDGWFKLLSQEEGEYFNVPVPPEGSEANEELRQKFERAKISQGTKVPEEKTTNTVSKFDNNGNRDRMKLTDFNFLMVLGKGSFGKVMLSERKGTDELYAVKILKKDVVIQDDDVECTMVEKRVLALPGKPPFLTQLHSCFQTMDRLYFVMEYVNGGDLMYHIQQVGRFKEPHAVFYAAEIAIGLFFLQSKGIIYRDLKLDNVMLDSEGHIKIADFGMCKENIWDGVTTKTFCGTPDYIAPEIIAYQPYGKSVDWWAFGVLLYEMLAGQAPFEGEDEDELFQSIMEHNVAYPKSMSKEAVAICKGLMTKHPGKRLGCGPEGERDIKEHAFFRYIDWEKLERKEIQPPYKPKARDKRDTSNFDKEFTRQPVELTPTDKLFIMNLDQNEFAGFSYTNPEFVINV

[4] = molecular target: Mitogen-activated protein kinase kinase kinase 10 (Homo sapiens) (UniProt Q02779); assay: Selectivity interaction (KinomeScan (DiscoverX)) EUB0000695a MAP3K10; conditions: at 100 nM
Mitogen-activated protein kinase kinase kinase 10 (Homo sapiens), sequence (Q02779 whole entry, looked up): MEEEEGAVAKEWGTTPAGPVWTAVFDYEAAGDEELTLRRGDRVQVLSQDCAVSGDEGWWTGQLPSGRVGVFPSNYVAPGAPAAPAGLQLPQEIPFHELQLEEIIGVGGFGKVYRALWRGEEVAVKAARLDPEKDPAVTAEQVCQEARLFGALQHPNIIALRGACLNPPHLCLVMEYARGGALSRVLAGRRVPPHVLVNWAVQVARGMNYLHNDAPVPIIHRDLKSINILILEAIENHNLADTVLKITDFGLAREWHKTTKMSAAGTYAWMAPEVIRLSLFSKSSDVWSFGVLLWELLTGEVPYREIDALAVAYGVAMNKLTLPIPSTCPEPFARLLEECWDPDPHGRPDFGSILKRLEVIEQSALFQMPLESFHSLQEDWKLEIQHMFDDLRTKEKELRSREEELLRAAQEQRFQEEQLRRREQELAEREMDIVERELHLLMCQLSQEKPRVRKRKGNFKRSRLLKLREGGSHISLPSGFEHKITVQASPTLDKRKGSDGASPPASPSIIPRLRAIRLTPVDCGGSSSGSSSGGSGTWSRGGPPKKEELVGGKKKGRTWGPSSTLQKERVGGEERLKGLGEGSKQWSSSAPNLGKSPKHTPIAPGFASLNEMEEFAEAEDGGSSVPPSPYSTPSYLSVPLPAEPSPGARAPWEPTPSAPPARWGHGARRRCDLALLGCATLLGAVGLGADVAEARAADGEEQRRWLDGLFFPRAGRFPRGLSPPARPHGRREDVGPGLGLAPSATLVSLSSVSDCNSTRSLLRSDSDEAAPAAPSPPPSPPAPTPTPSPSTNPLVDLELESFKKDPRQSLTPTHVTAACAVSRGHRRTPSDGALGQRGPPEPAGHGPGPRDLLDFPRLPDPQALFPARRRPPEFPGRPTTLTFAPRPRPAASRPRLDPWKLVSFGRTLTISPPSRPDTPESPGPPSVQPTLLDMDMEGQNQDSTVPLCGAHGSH

[5] = molecular target: Serine/threonine-protein kinase PRP4 homolog (Homo sapiens) (UniProt Q13523); assay: Selectivity interaction (KinomeScan (DiscoverX)) EUB0000695a PRPF4B; conditions: at 100 nM
Serine/threonine-protein kinase PRP4 homolog (Homo sapiens), sequence (Q13523 whole entry): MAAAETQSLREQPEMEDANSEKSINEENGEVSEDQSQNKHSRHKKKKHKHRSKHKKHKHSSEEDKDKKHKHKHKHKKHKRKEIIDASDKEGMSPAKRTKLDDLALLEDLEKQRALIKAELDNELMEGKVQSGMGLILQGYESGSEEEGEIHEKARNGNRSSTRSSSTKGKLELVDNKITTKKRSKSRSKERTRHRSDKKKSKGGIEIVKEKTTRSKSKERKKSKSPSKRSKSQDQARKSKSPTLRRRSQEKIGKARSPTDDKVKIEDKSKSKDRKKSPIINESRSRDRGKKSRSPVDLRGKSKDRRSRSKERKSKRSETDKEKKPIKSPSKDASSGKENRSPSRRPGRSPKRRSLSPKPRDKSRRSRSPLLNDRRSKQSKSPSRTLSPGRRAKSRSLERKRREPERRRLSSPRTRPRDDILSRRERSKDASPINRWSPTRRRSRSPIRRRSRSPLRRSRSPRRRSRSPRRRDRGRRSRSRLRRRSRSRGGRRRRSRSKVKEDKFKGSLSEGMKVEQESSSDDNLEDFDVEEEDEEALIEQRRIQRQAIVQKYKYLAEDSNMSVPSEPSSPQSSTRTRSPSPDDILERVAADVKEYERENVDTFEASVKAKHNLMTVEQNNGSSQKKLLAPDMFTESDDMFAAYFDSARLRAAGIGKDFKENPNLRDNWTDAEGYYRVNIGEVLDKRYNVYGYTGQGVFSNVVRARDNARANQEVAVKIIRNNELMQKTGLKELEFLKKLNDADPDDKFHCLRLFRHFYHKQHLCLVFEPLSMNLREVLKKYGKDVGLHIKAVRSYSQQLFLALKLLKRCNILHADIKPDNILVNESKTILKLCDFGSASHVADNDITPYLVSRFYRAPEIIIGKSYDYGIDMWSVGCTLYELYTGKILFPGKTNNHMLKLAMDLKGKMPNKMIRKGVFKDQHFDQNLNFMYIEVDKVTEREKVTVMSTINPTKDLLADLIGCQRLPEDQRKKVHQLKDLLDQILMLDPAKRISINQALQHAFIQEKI

[6] = molecular target: Glycogen synthase kinase-3 alpha (Homo sapiens, UniProt P49840); assay: Selectivity interaction (SelectScreen profiling (Invitrogen)) EUB0000607a GSK3A; conditions: at 2 µM
Glycogen synthase kinase-3 alpha, sequence (P49840 2-483 limits assumed): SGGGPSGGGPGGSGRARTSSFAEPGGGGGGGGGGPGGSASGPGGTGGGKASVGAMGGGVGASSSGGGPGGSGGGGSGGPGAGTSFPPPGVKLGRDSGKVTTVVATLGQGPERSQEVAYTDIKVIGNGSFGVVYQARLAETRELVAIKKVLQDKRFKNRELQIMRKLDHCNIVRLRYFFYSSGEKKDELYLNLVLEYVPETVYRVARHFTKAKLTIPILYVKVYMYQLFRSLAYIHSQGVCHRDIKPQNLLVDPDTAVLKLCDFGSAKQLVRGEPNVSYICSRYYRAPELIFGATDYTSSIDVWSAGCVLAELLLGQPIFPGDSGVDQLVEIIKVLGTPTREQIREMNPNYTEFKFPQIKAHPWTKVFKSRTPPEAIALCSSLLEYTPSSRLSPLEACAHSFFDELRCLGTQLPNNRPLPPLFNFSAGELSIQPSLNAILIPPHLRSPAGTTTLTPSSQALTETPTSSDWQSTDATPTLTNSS

[7] = molecular target: T2, Mitogen-activated protein kinase kinase kinase 13 (Homo sapiens) (UniProt O43283); assay: Selectivity interaction (KinomeScan (DiscoverX)) EUB0000607a MAP3K13; conditions: at 10 µM
T2 sequence (whole entry): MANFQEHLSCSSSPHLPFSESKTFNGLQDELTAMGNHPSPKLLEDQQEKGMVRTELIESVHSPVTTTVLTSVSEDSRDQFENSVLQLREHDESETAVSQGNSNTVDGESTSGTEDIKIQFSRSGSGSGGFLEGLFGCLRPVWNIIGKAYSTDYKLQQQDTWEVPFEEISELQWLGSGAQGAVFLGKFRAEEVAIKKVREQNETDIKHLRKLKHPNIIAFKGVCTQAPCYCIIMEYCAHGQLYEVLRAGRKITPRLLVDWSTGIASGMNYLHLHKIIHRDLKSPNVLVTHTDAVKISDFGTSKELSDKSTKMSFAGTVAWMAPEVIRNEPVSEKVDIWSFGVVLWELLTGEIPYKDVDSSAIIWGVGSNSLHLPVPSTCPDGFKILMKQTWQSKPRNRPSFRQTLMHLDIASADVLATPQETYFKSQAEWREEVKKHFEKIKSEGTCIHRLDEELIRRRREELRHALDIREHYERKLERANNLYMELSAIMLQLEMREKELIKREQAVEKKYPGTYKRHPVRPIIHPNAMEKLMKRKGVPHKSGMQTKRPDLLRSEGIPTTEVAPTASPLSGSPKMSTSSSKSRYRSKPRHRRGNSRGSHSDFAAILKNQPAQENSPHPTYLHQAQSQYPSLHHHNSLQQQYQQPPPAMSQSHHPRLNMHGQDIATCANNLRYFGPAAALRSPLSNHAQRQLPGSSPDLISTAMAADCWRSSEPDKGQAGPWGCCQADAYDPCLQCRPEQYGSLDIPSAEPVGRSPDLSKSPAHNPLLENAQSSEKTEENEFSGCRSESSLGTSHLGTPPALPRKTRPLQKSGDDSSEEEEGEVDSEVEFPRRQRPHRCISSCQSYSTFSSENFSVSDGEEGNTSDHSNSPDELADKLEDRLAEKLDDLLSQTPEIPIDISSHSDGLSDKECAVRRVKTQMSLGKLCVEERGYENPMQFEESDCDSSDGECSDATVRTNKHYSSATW

COc1cc(N(C)c2ccnc3ccc(C(F)(F)F)cc23)cc(OC)c1OC
% binding [1]: 100%

O[C@H]1CC[C@H](Nc2ncc3nc(Nc4c(F)cc(F)cc4F)n([C@H]4CCOC4)c3n2)CC1
% of control [2]: 38%

Cc1ccc(-c2ccc3c(ccc4sc5c(c43)NC[C@@H](C)NC5=O)n2)cn1
% of inhibition [3]: 13%

Cc1cc(F)c(C(=O)Nc2cccc(-c3nncn3C(C)C)n2)cc1-n1cnc(C2CC2)c1
% of control [4]: 100%
% of control [5]: 81%

CNC(=O)Nc1ccc(-c2nc(N3CC4CCC(C3)O4)c3cnn(C4CCC5(CC4)OCCO5)c3n2)cc1
% of inhibition [6]: -1%
% of control [7]: 82%
